Tested on: BT-549
Experiment: NCI DTP cell line screen (SRB), Breast Cancer
Type: cell-based
Description: For a typical screening experiment, cells are inoculated into 96 well microtiter plates in 100 μL at plating densities ranging from 5,000 to 40,000 cells/well depending on the doubling time of individual cell lines. After cell inoculation, the microtiter plates are incubated at 37° C., 5% CO2, 95% air and 100% relative humidity for 24 h prior to addition of experimental drugs.
After 24 h, two plates of each cell line are fixed in situ with TCA, to represent a measurement of the cell population for each cell line at the time of drug addition (Tz). Experimental drugs are solubilized in dimethyl sulfoxide at 400-fold the desired final maximum test concentration and stored frozen prior to use. At the time of drug addition, an aliquot of frozen concentrate is thawed and diluted to twice the desired final maximum test concentration with complete medium containing 50 μg/ml gentamicin. Additional four, 10-fold or ½ log serial dilutions are made to provide a total of five drug concentrations plus control. Aliquots of 100 μl of these different drug dilutions are added to the appropriate microtiter wells already containing 100 μl of medium, resulting in the required final drug concentrations.
Following drug addition, the plates are incubated for an additional 48 h at 37° C., 5% CO2, 95% air, and 100% relative humidity. For adherent cells, the assay is terminated by the addition of cold TCA. Cells are fixed in situ by the gentle addition of 50 μl of cold 50% (w/v) TCA (final concentration, 10% TCA) and incubated for 60 minutes at 4° C. The supernatant is discarded, and the plates are washed five times with tap water and air dried. Sulforhodamine B (SRB) solution (100 μl) at 0.4% (w/v) in 1% acetic acid is added to each well, and plates are incubated for 10 minutes at room temperature. After staining, unbound dye is removed by washing five times with 1% acetic acid and the plates are air dried. Bound stain is subsequently solubilized with 10 mM trizma base, and the absorbance is read on an automated plate reader at a wavelength of 515 nm. For suspension cells, the methodology is the same except that the assay is terminated by fixing settled cells at the bottom of the wells by gently adding 50 μl of 80% TCA (final concentration, 16% TCA). Using the seven absorbance measurements [time zero, (Tz), control growth, (C), and test growth in the presence of drug at the five concentration levels (Ti)], the percentage growth is calculated at each of the drug concentrations levels. Percentage growth inhibition is calculated as: [(Ti−Tz)/(C−Tz)]×100 for concentrations for which Ti>/=Tz [(Ti−Tz)/Tz]×100 for concentrations for which Ti<Tz
Three dose response parameters are calculated for each experimental agent. […] The drug concentration resulting in total growth inhibition (TGI) is calculated from Ti=Tz. […] Values are calculated for each of these three parameters if the level of activity is reached; however, if the effect is not reached or is exceeded, the value for that parameter is expressed as greater or less than the maximum or minimum concentration tested.

NCC(=O)Nc1ccc(-n2nc(C(F)(F)F)cc2-c2ccc3c(ccc4ccccc43)c2)cc1 [Compound 70, 2-Amino-N-{4-[5-(2-phenanthrenyl)-3-(trifluoromethyl)-1H-pyrazol-1-yl]-phenyl}-acetamide]
TGI: 2.95E−06 | Percent Growth (Log10 Concentration −4.0): −60% | Percent Growth (Log10 Concentration −5.0): −71% | Percent Growth (Log10 Concentration −6.0): 63% | Percent Growth (Log10 Concentration −7.0): 86% | Percent Growth (Log10 Concentration −8.0): 90%

From patent US8541460B2, “PDK-1/Akt signaling inhibitors” (The Ohio State University, priority 2003, dated 2013)
